Measured values reported in patent publication US20040033936A1, “Production, stabilisation and use of reduced forms of pharmaceutical compounds” (priority 2000, published 2004).

What was measured:
[1] = Qualitative assessment of reduction of methylene blue in aqueous solution (visual colour change blue to colourless); assay type: physicochemical; conditions: for Rate/extent of reduction: neutral, final pH about 6.5; for Rate of reduction: compared to neutral pH
Experimental: In aqueous solution, the oxidised form of methylene blue has a deep blue coloration, and the reduced (leuco) form is colourless and clear. Reduction of methylene blue can therefore be determined by observation of a colour change from blue to colourless. In the present experiments, the colour change was measured by eye against a white background, but instrumentation, e.g. a visible range spectrophotometer, could also be used.
Individual reducing agents or combinations of reducing agents were added to a solution of methylene blue. […] Reduction of methylene blue was assessed by visual observation of colour change. […] The pH of the final solution of methylene blue and reducing agent(s) was about pH 6.5 in each case (here referred to as “neutral”).
Individual reducing agents or combinations of reducing agents were added, in solution; to a methylene blue solution which had been made either acid or alkaline using acetic acid or sodium hydroxide, respectively. The effect of pH on reduction of methylene blue was determined. Reduction of methylene blue was assessed by visual observation of colour change. The rate of reduction (if any) was compared to the rates of reduction at neutral pH.
In the present context, “acid” refers to a pH adjusted to approximately 3.7 using acetic acid, and “alkali” refers to a pH adjusted to approximately 9.8 using sodium hydroxide. The results are as follows: […]

[2] = Qualitative assessment of reduction of thionine in aqueous solution (visual colour change blue/purple to colourless); assay type: physicochemical; conditions: thionine 50 mg/30 ml; reducing agents 250 mg/3 ml
Experimental: The following reducing agents or combinations of reducing agents (250 mg/3 ml) were added to an aqueous solution of thionine (50 mg/30 mU. Reduction of thionine was determined by visual observation of colour change from blue/purple to colourless. All experiments used 1.67 mg/mI (50 mg/30 ml) thionine solution. Ascorbic acid, L-cysteine or glutathione was used in solution at 83.3 mg/mi (250 mg/3 ml).

[3] = acid, pH approximately 3.7 (acetic acid)
[4] = alkali, pH approximately 9.8 (sodium hydroxide)

| Compound | Rate/extent of reduction [1] | Rate of reduction [2] | Rate of reduction [1, 4] | Rate of reduction [1, 3] |
| --- | --- | --- | --- | --- |
| Cl.N[C@@H](CS)C(=O)O [L-cysteine, L-cysteine hydrochloride] | no reduction | – | – | – |
| CC(=O)N[C@@H](CS)C(=O)O [N-acetyl-L-cysteine, N-acetyl L-cysteine] | partial reduction | – | – | – |
| O=C1O[C@H]([C@@H](O)CO)C(O)=C1O [ascorbic acid] | reduced slowly over 10-15 minutes | reduced in about 10-15 minutes | no change in rate compared to neutral | no change in rate compared to neutral |
| N[C@@H](CCC(=O)N[C@@H](CS)C(=O)NCC(=O)O)C(=O)O [glutathione] | no reduction over 15 minutes | no reduction | slight reduction over 10-15 minutes | no observable reduction (as with neutral) |
| O=S([O-])S(=O)[O-].[Na+].[Na+] [sodium hydrosulphite] | very rapid reduction | rapid reduction | – | – |

Continued, in another order:

| Rate/extent of reduction [1] | Rate of reduction [2] | Rate of reduction [1, 4] | Compound | Rate of reduction [1, 3] |
| --- | --- | --- | --- | --- |
| no reduction | – | – | CSCC[C@H](N)C(=O)O [methionine] | – |
| no reduction | – | – | O=S([O-])S(=O)(=O)[O-].[Na+].[Na+] [sodium metabisulphite] | – |
